Source: patent publication US8916132B2, “Benzimidazole-derived compounds use as markers in the case of neurodegenerative diseases” (Servicios Cientificos Neuroinnovation Ltda, priority 2008, dated 2014)
Where two headings read alike, the source gives them in different places.

Tests used:
Aβ Fibers = Aβ Fibers (Homo sapiens, UniProt P05067); conditions: Okamura et al., 2005; cited from earlier work
[1] = Parallel Artificial Membrane Permeability assay (PAMPA)
Source text: (§1) The analyzed parameters were: specific permeability (Sp), this is an indicator of the compound's ability to cross the hematoencephalic barrier (HEB) by passive diffusion, and the partition coefficient (LogP), which corresponds to the partition coefficient of the compound between Octanol and the pH 7.4 phosphate tampon, which is a predictive element for the compound's penetration of the HEB.
The Parallel Artificial Membrane Permeability assay (PAMPA) is based on the ability of compounds to diffuse from a donor compartment through a Polyvinylidene Fluoride Membrane Filter (PVDF) covered with a phosphatidylcholine solution at 20% towards a second acceptor compartment, which is analyzed. […] The quantification was carried out by means of spectrophotometry, using pans 1 mm in length and with a capacity of 300 uL.

[2] = Partition coefficient octanol / pH 7.4 tampon; conditions: for LogP Coefficient: octanol / pH 7.4 tampon, 25° C.; for CNS LogP: partition coefficient in relation to ability to cross the HEB
Description: as §1
Briefly, the partition coefficient (log Po/w) was determined in a pH 7.4 tampon solution, adjusted with 0.1 M sodium hydroxide. The organic phase utilized octanol saturated with the pH 7.4 tampon solution. A 1 mg/mL solution of the drug in methanol was prepared. Dilutions with concentrations ranging from 0.02 to 0.4 mg/mL were prepared from these solutions. Then […] portions were taken from each of these previously prepared stock solutions in 25 mL volumetric flasks, with the volume completed with the tampon pH 7.4. 25 ml of octanol where then measured and placed in three decantation funnels, with the previously prepared solutions added to each, mixing both phases by vigorous agitation during two minutes. […] Both phases are separated once equilibrium had been reached. The aqueous phase was centrifuged during 3 minutes to ensure complete separation of the phases. The entire process was carried out at a temperature of 25° C. The quantification was carried out with a UVN spectrophotometer.

[3] = rat, in vivo, iv
Alzheimer PHF = Alzheimer PHF (Homo sapiens, UniProt P10636); assay: ^3H-Astemizole displacement test, Alzheimer PHF
Tau Filaments in Vitro = Tau Filaments in Vitro (Homo sapiens, UniProt P10636); assay: ^3H-Astemizole displacement test, tau filaments in vitro
[4] = In vivo pharmacokinetics in blood and cerebral tissue (HPLC/UV); conditions: male, C2 albino, rat, iv, astemizole 16 mg/kg, lansoprazole 8 mg/kg
[5] = system: neurofibrillary tangles (NFTs); assay: Fixation in neurofibrillary tangles in postmortem brain sections of Alzheimer patients; conditions: co-localization with PHF-1 antibody, tritiated or fluorescent marking
Description: This evaluation was carried out by means of immunohistochemistry with antibodies specific for senile plaque, 6E10 antibody reactive against 6-13 residues of Aβ peptide, and the tau-specific PHF1 antibody.
In short, postmortem brains of patients with a proven clinical diagnosis of Alzheimer's Disease are set in formalin at 10%, with slices with sections varying from 5 to 200 μm made, preferably with 20 μm. These slices are incubated in benzimidazoles marked pursuant to the present invention and afterwards incubated with the specific 6E10 and PHF1 antibodies to determine the co-localization of the marker in the tau protein structures of the cerebral sections under study.
For practical purposes and as part of the examples, the co-localization of marked tau with fluorophore conjugate antibodies with the localization of the fluorescently marked drug is analyzed. The co-localization of both drugs with the tau aggregated structures in the hippocampus region, entorhinal cortex and nucleous of Meynert in the postmortem brains with Alzheimer's Disease was reviewed.

mGluR7 = mGluR7 (Homo sapiens, UniProt Q14831); conditions: Yanamala et al., 2008; cited from earlier work
[6] = system: human tau protein aggregates (PHFs); assay: ^3H-Astemizole saturation binding to tau protein aggregates; conditions: for Bmax/Kd Index: Tau Protein Aggregates (PHF)
[7] = biological target: Aβ1-42 Peptide Aggregates (Homo sapiens, UniProt P05067); assay: ^3H-Astemizole saturation binding to Aβ1-42 peptide aggregates
in vivo = conditions: male, C2 albino, rat, iv
[8] = saturation test, Tau Protein Aggregates

Aβ1-42 Peptide Aggregates, sequence (P05067 672-713): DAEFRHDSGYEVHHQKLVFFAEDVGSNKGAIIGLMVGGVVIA
Alzheimer PHF, sequence (P10636 623-758 limits assumed): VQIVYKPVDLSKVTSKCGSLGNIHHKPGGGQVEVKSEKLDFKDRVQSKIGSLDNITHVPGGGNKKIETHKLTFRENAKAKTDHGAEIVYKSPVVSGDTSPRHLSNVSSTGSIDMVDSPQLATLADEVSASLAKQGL
Aβ Fibers, sequence (P05067 672-713 limits assumed): as the sequence (P05067 672-713) above
Tau Filaments in Vitro, sequence (P10636 1-441 isoform P10636-8): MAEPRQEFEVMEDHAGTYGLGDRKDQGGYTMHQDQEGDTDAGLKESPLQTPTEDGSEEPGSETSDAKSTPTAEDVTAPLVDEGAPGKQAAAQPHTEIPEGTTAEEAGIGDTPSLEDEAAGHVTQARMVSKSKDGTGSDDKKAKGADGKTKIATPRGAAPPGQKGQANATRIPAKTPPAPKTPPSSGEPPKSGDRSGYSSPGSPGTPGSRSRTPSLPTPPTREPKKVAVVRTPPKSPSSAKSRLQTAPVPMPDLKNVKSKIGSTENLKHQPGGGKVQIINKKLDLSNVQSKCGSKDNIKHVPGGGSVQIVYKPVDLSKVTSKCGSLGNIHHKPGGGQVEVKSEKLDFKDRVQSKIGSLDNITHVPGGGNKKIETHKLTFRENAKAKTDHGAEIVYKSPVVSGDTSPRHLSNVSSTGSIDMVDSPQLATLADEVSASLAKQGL
mGluR7, sequence (Q14831 35-915): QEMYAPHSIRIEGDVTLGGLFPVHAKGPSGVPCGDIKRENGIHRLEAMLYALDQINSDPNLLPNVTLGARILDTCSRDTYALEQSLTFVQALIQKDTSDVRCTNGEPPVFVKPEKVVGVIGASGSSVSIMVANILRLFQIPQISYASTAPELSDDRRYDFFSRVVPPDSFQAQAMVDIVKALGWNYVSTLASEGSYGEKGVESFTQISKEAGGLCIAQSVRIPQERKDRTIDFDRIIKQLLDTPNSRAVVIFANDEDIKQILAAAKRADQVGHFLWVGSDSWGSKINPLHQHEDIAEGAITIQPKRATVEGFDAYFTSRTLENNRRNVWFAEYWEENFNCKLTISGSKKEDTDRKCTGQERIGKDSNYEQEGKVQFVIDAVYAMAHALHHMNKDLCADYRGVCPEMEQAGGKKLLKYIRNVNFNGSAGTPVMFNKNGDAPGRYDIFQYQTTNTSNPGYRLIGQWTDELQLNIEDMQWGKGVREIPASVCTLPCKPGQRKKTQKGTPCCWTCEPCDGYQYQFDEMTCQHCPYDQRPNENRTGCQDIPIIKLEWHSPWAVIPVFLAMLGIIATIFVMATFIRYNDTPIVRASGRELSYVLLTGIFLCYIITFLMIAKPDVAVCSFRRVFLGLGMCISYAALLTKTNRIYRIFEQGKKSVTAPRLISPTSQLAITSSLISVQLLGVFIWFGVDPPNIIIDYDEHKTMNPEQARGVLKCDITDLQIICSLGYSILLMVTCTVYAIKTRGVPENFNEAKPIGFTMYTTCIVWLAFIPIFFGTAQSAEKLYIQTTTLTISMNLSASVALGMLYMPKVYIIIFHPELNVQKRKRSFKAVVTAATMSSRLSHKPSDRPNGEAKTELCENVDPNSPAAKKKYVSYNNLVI

CNc1ccc(/C=C/c2nc3ccc(OCCF)cc3o2)cc1 [BF168]
Ki (Aβ Fibers): 6.4 nM

CCCC(C)C1(CC)C(=O)NC(=S)NC1=O (centres unmarked) [Thiopental]
Papp [1]: 17 ×10⁻⁶ cm/s | LogP Coefficient [2]: 1.4

Cc1c(OCC(F)(F)F)ccnc1C[S+]([O-])c1nc2ccccc2[nH]1 (centres unmarked) [Lansoprazole]
CNS Transport ([1]; PAMPA): Positive | Coefficient (Sp) specific permeability ([1]; PAMPA): 3.63E−05 | persistency in the encephalon / brain ([3]; male, C2 albino): at least 3 hours | average life in plasma compared with brain [3]: less than in the brain | Ki (Alzheimer PHF): 833 nM | Ki (Tau Filaments in Vitro): 2.7 nM | Tmax ([4]; brain (cerebral tissue), maximum concentration (Tmax) in the brain, cerebral tissue): 37 min | Tmax ([4]; whole blood (intracardiac), maximum concentration (Tmax) in blood, intracardiac blood): 30 min | marking of tau aggregates / NFTs in postmortem AD brain sections [5]: bond to the NFTs structures | marking of tau aggregates / NFTs in postmortem AD brain sections ([5]; listed as Lansoprazol): fluorescent staining of Tau protein aggregates | marking of tau aggregates / NFTs in postmortem AD brain sections ([5]; listed as lansoprazole): efficiently and selectively mark those sectors positive for tau

C[N+]12CCC(CC1)C(OC(=O)C(O)(c1ccccc1)c1ccccc1)C2 (centres unmarked) [Clidinium Bromide]
CNS Transport [1]: Negative | Papp [1]: 0.029 ×10⁻⁶ cm/s | LogP Coefficient [2]: −0.092 | CNS LogP [2]: Unfavorable

c1ccc(C(NCCNC(c2ccccc2)c2ccccc2)c2ccccc2)cc1 [AMN82]
Binding Energies Autodock (mGluR7): -7.56 kcal/mol

Cc1c(OCC(F)(F)[18F])ccnc1C[S+]([O-])c1nc2ccccc2[nH]1 (centres unmarked) [^18F-Lansoprazole]
brain/blood bio-distribution relation (at 30 minutes): 0.23 | reaches the brain (at 30 minutes): 0.3% | brain/blood bio-distribution relation (at 60 minutes): 1.27 | reaches the brain (at 60 minutes): 0.14%

[3H]C([3H])([3H])Oc1ccc(CCN2CCC(Nc3nc4ccccc4n3Cc3ccc(F)cc3)CC2)cc1 [^3H-Astemizole]
Bmax/Kd Index [6]: 3.316 | binding affinity to tau protein aggregate forms compared with Aβ ([6]; at low concentrations, FIG. 7): greater binding affinity to tau protein aggregate forms than to Aβ | Bmax [6, 8]: 13.07 nM | Bmax/Kd Index [7]: 0.057 | Bmax ([7]; saturation test): 0.12 pmol/nmol Aβ1-42

COc1ccc(CCN2CCC(Nc3nc4ccccc4n3Cc3ccc(F)cc3)CC2)cc1 [Astemizole]
CNS Transport ([1]; PAMPA): Positive | Papp ([1]; PAMPA): 147 ×10⁻⁶ cm/s | LogP Coefficient [2]: 5.57 | CNS LogP [2]: Favorable | average life in plasma compared with brain [3]: less than in the brain | Tmax (in vivo; maximum concentration (Tmax) in blood): 28 min | Tmax (in vivo; maximum concentration (Tmax) in the brain): 55 min | Bmax/Kd Index [6]: 3.316 | Bmax/Kd Index [7]: 0.057 | marking of tau aggregates / NFTs in postmortem AD brain sections [5]: bond to the NFTs structures | marking of tau aggregates / NFTs in postmortem AD brain sections ([5]; listed as astemizole): efficiently and selectively mark those sectors positive for tau

COc1ccc(CCN2CCC(Nc3nc4ccccc4n3Cc3ccc(F)cc3)CC2)cc1 [^3H-Astemizole]
Kd [6, 8]: 3.94 nM | Kd ([7]; saturation test): 2.1 nM
